Experimental data reported in US11155539B2, “4-pyridinylmethyl-morpholine derivatives and the use thereof as medicament” (Boehringer Ingelheim International GmbH, priority 2018, dated 2021).

Legend:
NMDA NR1/NR2B receptor = target: T1, NMDA NR1/NR2B receptor (Homo sapiens, UniProt Q05586+Q13224); assay: In vitro NMDA NR1/NR2B cell assay (FLIPR, intracellular calcium induced by glycine/glutamate); type: cell-based; conditions: HEK293 cells expressing NMDA NR1/NR2B; 20 μM glycine, 1 μM glutamate; read-out: IC50 (in vitro NR2B affinity, FLIPR assay)
T1 construct: host or cells: HEK293, tetracycline-inducible expression
T1 sequence (Q13224 27-1484, other chains not shown): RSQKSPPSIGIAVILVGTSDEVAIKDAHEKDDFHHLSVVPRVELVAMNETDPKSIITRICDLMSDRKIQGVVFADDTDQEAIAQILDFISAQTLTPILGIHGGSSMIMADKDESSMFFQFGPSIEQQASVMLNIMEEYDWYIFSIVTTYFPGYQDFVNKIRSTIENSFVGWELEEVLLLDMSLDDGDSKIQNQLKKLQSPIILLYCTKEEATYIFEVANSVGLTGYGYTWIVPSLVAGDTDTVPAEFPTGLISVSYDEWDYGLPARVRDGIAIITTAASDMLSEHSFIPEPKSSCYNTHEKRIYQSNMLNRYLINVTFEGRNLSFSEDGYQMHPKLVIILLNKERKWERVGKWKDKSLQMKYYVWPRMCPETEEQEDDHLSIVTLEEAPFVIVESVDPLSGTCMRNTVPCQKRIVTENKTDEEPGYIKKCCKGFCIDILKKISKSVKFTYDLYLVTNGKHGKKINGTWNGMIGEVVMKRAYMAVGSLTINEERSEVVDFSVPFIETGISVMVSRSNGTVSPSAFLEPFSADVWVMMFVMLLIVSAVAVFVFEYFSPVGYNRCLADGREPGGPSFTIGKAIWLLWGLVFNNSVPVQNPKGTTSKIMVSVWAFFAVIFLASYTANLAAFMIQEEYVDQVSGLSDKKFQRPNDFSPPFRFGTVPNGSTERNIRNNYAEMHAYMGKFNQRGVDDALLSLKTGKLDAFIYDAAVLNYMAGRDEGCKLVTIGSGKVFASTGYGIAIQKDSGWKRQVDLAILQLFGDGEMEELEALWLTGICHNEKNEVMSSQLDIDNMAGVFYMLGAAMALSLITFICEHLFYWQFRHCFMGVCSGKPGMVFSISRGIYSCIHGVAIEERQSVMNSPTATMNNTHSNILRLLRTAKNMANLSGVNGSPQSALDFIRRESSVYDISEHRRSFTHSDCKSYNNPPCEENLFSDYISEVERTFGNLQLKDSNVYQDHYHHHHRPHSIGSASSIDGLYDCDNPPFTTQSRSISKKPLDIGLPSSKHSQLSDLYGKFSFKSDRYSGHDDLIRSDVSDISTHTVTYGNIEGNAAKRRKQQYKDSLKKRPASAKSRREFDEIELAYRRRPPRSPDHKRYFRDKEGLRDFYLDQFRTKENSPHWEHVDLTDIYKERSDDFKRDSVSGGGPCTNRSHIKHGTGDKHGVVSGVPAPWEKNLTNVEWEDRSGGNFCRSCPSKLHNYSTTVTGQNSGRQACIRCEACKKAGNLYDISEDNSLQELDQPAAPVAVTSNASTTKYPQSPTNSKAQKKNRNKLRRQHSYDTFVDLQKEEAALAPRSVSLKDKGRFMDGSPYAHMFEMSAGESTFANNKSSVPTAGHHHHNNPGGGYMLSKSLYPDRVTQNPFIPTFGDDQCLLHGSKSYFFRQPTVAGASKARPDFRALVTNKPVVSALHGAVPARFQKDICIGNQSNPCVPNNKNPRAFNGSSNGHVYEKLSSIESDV
Outline: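 HEK293 cells with tetracycline-induced NR1/NR2B, induced 48 h, loaded with Fluo-8 for 60 min at room temperature, stimulated with 20 μM glycine plus 1 μM glutamate (final) in HEPES buffer pH 7.4. Compound added 2 min later at 0.9% DMSO; fluorescence at ~5 min normalised to DMSO and 1 μM reference NAM controls, IC50 by 4-parameter fit.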

[1] = Metabolic stability in pooled human liver microsomes; type: in vitro ADME; conditions: pH 7.6, 1 μM compound, 37° C., NADPH, read-out: Half-life - t½ human liver microsomes
Source text: Stability in human liver microsomes refers to the susceptibility of compounds to biotransformation in the context of selecting and/or designing drugs with favorable pharmacokinetic properties. The primary site of metabolism for many drugs is the liver. Human liver microsomes contain the cytochrome P450s (CYPs), and thus represent a model system for studying drug metabolism in vitro Enhanced stability in human liver microsomes is associated with several advantages, including increased bioavailability and adequate half-life, which can enable lower and less frequent dosing of patients. Thus, enhanced stability in human liver microsomes is a favorable characteristic for compounds that are to be used for drugs.
The metabolic degradation of the test compound was assayed at 37° C. with pooled human liver microsomes. The final incubation volume of 60 μl per time point contains TRIS buffer pH 7.6 at room temperature (0.1 M), magnesium chloride (5 mM aqueous solution), microsomal protein (1 mg/mL for human) and the test compound at a final concentration of 1 μM. Following a short preincubation period at 37° C., the reactions were initiated by addition of betanicotinamide adenine dinucleotide phosphate, reduced form (NADPH, 1 mM), and terminated by transferring an aliquot into acetonitril after different time points. After centrifugation (10000 g, 5 min), an aliquot of the supernatant was assayed by HPLC-MS/MS as described above for the MDCK assay P-gp for the amount of parent compound. The half-life was determined by the slope of the semi-logarithmic plot of the concentration-time profile.

Row | IC50 (NMDA NR1/NR2B receptor) | half-life at 1 μM [1] | SMILES
1 | 454 nM | > 2.17 h | CNC(=O)[C@@H]1CN(Cc2ccc(Oc3ccc(F)cc3)cn2)CCO1 [Example 30]
2 | 194 nM | > 2.17 h | CNC(=O)[C@@H]1CN(Cc2ccc(Oc3ccc(C)cc3)nc2)CCO1 [Example 29]
3 | 188 nM | > 2.17 h | CNC(=O)[C@@H]1CN(Cc2ccc(Oc3ccccc3Cl)nc2)CCO1 [Example 17]
4 | 199 nM | > 2.17 h | CNC(=O)[C@@H]1CN(Cc2ccc(Oc3ccccc3F)nc2)CCO1 [Example 19]
